The values that follow come from patent US4868117A, “BBM-1675, a new antitumor antibiotic complex” (Bristol-Myers Company, priority 1985, dated 1989).

Several values for one entry are separate records, joined by “and”; a condition that tells them apart may be missing. Identical values can stand only once. Like-named read-outs stand apart in the source and are kept apart here.

Data set [1] concerns P-388 leukemia. The data set is described as follows: Intravenously implanted P-388 leukemia, i.v. treatment. The settings on record: days 1, 4 and 7, lines in dose order as in E66 (Adriamycin starts with 30).
Method: (§1) Lymphocytic leukemia P-388, lymphoid leukemia L-1210, melanotic melanoma B16 and Lewis lung carcinoma were implanted intraperitoneally into male BDF1 mice at an inoculum size of 10^6, 10^5, 5×10^5 and 10^6 cells per mouse, respectively. Graded doses of test compounds were administered to the mice intraperitoneally 24 hours after the tumor inoculation.
(§2) Death or survival of the treated and non-treated mice was recorded daily, and the median survival time (MST) was calculated for each of the test (T) and control (C) groups. […] Second experiments were carried out by intravenous administration of BBM-1675 components against P-388 and L-1210 leukemias, which were inoculated intravenously at 5×10^5 and 10^4 cells per mouse, respectively.
The test system of data set [2] is L-1210 leukemia. The data set is described as follows: Intravenously implanted L-1210 leukemia, i.v. treatment. The settings on record: days 1, 4 and 7, lines in dose order as in E71 (Adriamycin starts with 16).
Method: as §1, §2
The test system of data set [3] is P-388 leukemia. The note with it: for Therapeutic index, LD50/MED: MED = minimum effective dose.
Method: as §1, §2
For data set [4], the system named is L-1210 leukemia. The note with it: i.p., qd 1→9.
Method: as §1
(§3) Death or survival of the treated and non-treated mice was recorded daily, and the median survival time (MST) was calculated for each of the test (T) and control (C) groups.
A further data set concerns male ddY mice. Kind of data set: Toxicity (LD50) in male ddY mice. The note with it: multiple dose (qd 1→9), i.p.
[5] abbreviates: i.p., qd 1→11, lines in dose order as in E53.
Setting [6] is: i.p., qd 1→9, lines in dose order as in E48.

Method for B16 melanoma: as §1, §3
Method for Lewis lung carcinoma: as §1, §3

On to `COc1cccc2c1C(=O)c1c(O)c3c(c(O)c1C2=O)C[C@@](O)(C(=O)CO)C[C@@H]3O[C@H]1C[C@H](N)[C@H](O)[C@H](C)O1` [Adriamycin, adriamycin], for which, in the data set on P-388 leukemia [1], the “Survivors on day 5” value is 0/6 and 6/6; the “Survivors on day 45” value is reported as 0/6. For the same compound, in the data set with L-1210 leukemia [2], the “Survivors on day 5” value is 2/6 and 6/6; the “Survivors on day 45” value was 0/6.
One may read the T/C as the result in the treated group divided by that in the control group, in per cent. In general, LD50 refers to the dose expected to kill half of the subjects tested. A high value points to a less toxic substance. Turning to `CO[C@@H]1[C@H](O)C[C@@H](O[C@@H]2C[C@H](Oc3cc4cc5c(c(O)c4c(O)c3C)C(=O)[C@@H](O[C@H]3C[C@@H](O[C@H]4C[C@@H](O[C@H]6C[C@](C)(O)[C@@H](OC(C)=O)[C@H](C)O6)[C@H](O)[C@@H](C)O4)[C@H](O)[C@@H](C)O3)[C@H]([C@H](OC)C(=O)[C@@H](O)[C@@H](C)O)C5)O[C@H](C)[C@@H]2OC(C)=O)O[C@@H]1C` [Chromomycin A3, chromomycin A3], the “Therapeutic index, LD50/MED” value was 8 with P-388 leukemia [3] (P-388, qd 1→9); 8 in the data set with P-388 leukemia [3] (P-388, single); 23 in the data set on Lewis lung carcinoma (LL, MED = minimum effective dose); 23 with B16 melanoma (B16, MED = minimum effective dose). For the same compound, the “Survivors on day 45” value was 0/5 and 1/5 with P-388 leukemia [3] (mouse, in vivo, ip); 0/6 with L-1210 leukemia [4] (lines in dose order as in E43); 1/6 and 0/6 in the data set on Lewis lung carcinoma (setting [5]); 0/5 in the data set with Lewis lung carcinoma (mouse, in vivo, ip); 0/6 in the data set on B16 melanoma (setting [6]). Further, the MST was 8.5 days and 11.0 days and 10.0 days in the data set with L-1210 leukemia [4] (lines in dose order as in E43); 17.0 with Lewis lung carcinoma (mouse, in vivo, ip); 23.0 days and 21.0 days with B16 melanoma (setting [6]); 18.0 in the data set on B16 melanoma (mouse, in vivo, ip). For the same compound, the “Survivors on day 5” value in the data set on L-1210 leukemia [4] (lines in dose order as in E43) was 6/6; in the data set with Lewis lung carcinoma (setting [5]), 6/6 and 5/5; in the data set on B16 melanoma (setting [6]), 6/6. For the same compound, in the data set with L-1210 leukemia [4] (≥[…] significant, mg/kg/day in line order: A1 0.003,0.001,0.0003,0.0001, A2 0.03,0.01,0.003,0.001,0.0003, chromomycin A3 0.3,0.1,0.03,0.01,0.003), the T/C was 89%. The same compound returned an LD50 in the data set with male ddY mice of 0.23 mg/kg/day.
